Reference: patent US12577587B2 (priority 2009, dated 2026)
“Also recorded” adds a separate entry of the source.

Legend:
Format in all cases: cell-based, human
[1] = tested on: KBM7 cells
[2] = tested on: KBM7 cells; remark: listed apart in the source
[3] = tested on: KBM7 cells; remark: listed apart in the source

| Compound | infection efficiency [3] [%] | also measured |
| --- | --- | --- |
| Cc1ccc(NC(=O)c2ccc(CN3CCN(C)CC3)cc2)cc1Nc1nccc(-c2cccnc2)n1 [Gleevec, imatinib] | – | sensitivity to Gleevec (apoptosis) [1]: very sensitive; also recorded: sensitive |
| TRAIL | – | Cell viability [2]: decreased dramatically |
| polybrene | 33 | – |
| protamine sulphate | 44 | – |
